Assay results reported in PubChem BioAssay (NCI).
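Growth conditions: 96-well plates. Treatment: test compound, 48 hours, 5 concentrations. Analysis: linear interpolation between bracketing concentrations; unreached endpoints set to highest concentration. Abbreviation: GI50, concentration required for 50% inhibition of growth. The concentration for full growth arrest is given as TGI.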

Assays:
Experiment in all cases: DTP human tumour cell line panel, 48 h
MOLT-4 leukemia = tested on: MOLT-4 leukemia
M14 melanoma = tested on: M14 melanoma
DMS 114 small cell lung = tested on: DMS 114 small cell lung
SK-OV-3 ovarian = tested on: SK-OV-3 ovarian
SK-MEL-5 melanoma = tested on: SK-MEL-5 melanoma
DMS 273 small cell lung = tested on: DMS 273 small cell lung
NCI-H522 lung = tested on: NCI-H522 lung
NCI-H23 lung = tested on: NCI-H23 lung
OVCAR-4 ovarian = tested on: OVCAR-4 ovarian
SN12C renal = tested on: SN12C renal
XF 498 CNS = tested on: XF 498 CNS
K-562 leukemia = tested on: K-562 leukemia
COLO 205 colon = tested on: COLO 205 colon
SF-295 CNS = tested on: SF-295 CNS
BT-549 breast = tested on: BT-549 breast
SF-268 CNS = tested on: SF-268 CNS
SW-620 colon = tested on: SW-620 colon
KM20L2 colon = tested on: KM20L2 colon
HCC-2998 colon = tested on: HCC-2998 colon
ACHN renal = tested on: ACHN renal
SK-MEL-28 melanoma = tested on: SK-MEL-28 melanoma
HOP-18 NSCLC = tested on: HOP-18 NSCLC
MDA-MB-435 = tested on: MDA-MB-435
OVCAR-3 ovarian = tested on: OVCAR-3 ovarian
SK-MEL-2 melanoma = tested on: SK-MEL-2 melanoma
MDA-MB-231 breast = tested on: MDA-MB-231 breast
EKVX NSCLC = tested on: EKVX NSCLC
TK-10 renal = tested on: TK-10 renal
HOP-92 NSCLC = tested on: HOP-92 NSCLC
OVCAR-5 ovarian = tested on: OVCAR-5 ovarian
HCT-15 colon = tested on: HCT-15 colon
MALME-3M melanoma = tested on: MALME-3M melanoma
IGROV1 ovarian = tested on: IGROV1 ovarian
M19-MEL melanoma = tested on: M19-MEL melanoma

**Q.** What does the source list for `CC(=O)/C(C)=N/NC(=O)c1ccccc1O`?
**A.** TGI (MOLT-4 leukemia): > 100 µM; GI50 (M14 melanoma): > 100 µM; TGI (M14 melanoma): > 100 µM; TGI (DMS 114 small cell lung): > 10 µM; GI50 (SK-OV-3 ovarian): > 100 µM; TGI (SK-OV-3 ovarian): > 100 µM; TGI (SK-MEL-5 melanoma): > 100 µM; TGI (DMS 273 small cell lung): > 10 µM; TGI (NCI-H522 lung): > 100 µM; GI50 (NCI-H23 lung): > 100 µM; TGI (NCI-H23 lung): > 100 µM; GI50 (OVCAR-4 ovarian): > 100 µM; TGI (OVCAR-4 ovarian): > 100 µM; GI50 (SN12C renal): > 100 µM; TGI (SN12C renal): > 100 µM; TGI (XF 498 CNS): > 10 µM; TGI (K-562 leukemia): > 100 µM; GI50 (COLO 205 colon): > 100 µM; TGI (COLO 205 colon): > 100 µM; GI50 (SF-295 CNS): > 100 µM; TGI (SF-295 CNS): > 100 µM; TGI (BT-549 breast): > 100 µM; GI50 (SF-268 CNS): > 100 µM; TGI (SF-268 CNS): > 100 µM; GI50 (SW-620 colon): > 100 µM; TGI (SW-620 colon): > 100 µM; TGI (KM20L2 colon): > 10 µM; GI50 (HCC-2998 colon): > 100 µM; TGI (HCC-2998 colon): > 100 µM; GI50 (ACHN renal): > 100 µM; TGI (ACHN renal): > 100 µM; GI50 (SK-MEL-28 melanoma): > 100 µM; TGI (SK-MEL-28 melanoma): > 100 µM; TGI (HOP-18 NSCLC): > 10 µM; TGI (MDA-MB-435): > 100 µM; GI50 (OVCAR-3 ovarian): > 10 µM; TGI (OVCAR-3 ovarian): > 100 µM; GI50 (SK-MEL-2 melanoma): > 100 µM; TGI (SK-MEL-2 melanoma): > 100 µM; TGI (MDA-MB-231 breast): > 100 µM; GI50 (EKVX NSCLC): > 100 µM; TGI (EKVX NSCLC): > 100 µM; GI50 (TK-10 renal): > 100 µM; TGI (TK-10 renal): > 100 µM; TGI (HOP-92 NSCLC): > 10 µM; GI50 (OVCAR-5 ovarian): > 100 µM; TGI (OVCAR-5 ovarian): > 100 µM; GI50 (HCT-15 colon): > 10 µM; TGI (HCT-15 colon): > 100 µM; GI50 (MALME-3M melanoma): > 100 µM; TGI (MALME-3M melanoma): > 100 µM; GI50 (IGROV1 ovarian): > 10 µM; TGI (IGROV1 ovarian): > 100 µM; TGI (M19-MEL melanoma): > 10 µM
